Data reported in patent US20110071108A1, “Beta-Cyclodextrin Derivatives as Antibacterial Agents” (Pinnacle Pharmaceuticals, Inc., priority 2005, published 2011).

Assays:
Experiment in all cases: Bacterial panel testing, MIC by broth microdilution
Assay type in all cases: cell-based
Conditions in all cases: 20-24 hours growth
Pseudomonas aeruginosa = system: Pseudomonas aeruginosa
Method: (§1) One to three colonies of bacteria were picked from an Mueller-Hinton or Brain Heart infusion agar plate (depending on the bacterial strain) and transferred to 3 ml Mueller-Hinton broth or Brain Heart infusion media (depending on the bacterial strain). Bacteria were allowed to grow for 2-4 hours in an incubator at 37° C. Bacteria-inoculated media were dispersed in 0.9% saline to match McFarland standard density. 100 μl standardized inoculation was added to 20 ml media (dilution 1). 10 μl of the new dilution was added to 990 μl media and mixed (dilution 2). 10 μl of dilution 2 was spread on an agar plate and allowed to grow overnight. Colonies were then […].
(§2) Test compound was diluted to 10 μg/ml in dimethylsulfoxide. Four μl of Rifampicin antibiotic was loaded into row H, column 2.
(§3) All wells were then filled with 100 μl of inoculated media (dilution 1 from Example 1). A further 100 μl of the inoculated media was then added to column 2 and the contents are pipetted to thoroughly mix the contents. A full 100 μl was then transferred from column 2 and mixed into column 3. This process was continued from left to right until columns 2-12 were serially diluted, and the final draw from column 12 was discarded. The plates were covered with 3M sealing tape (plates containing Enterococcus faecium were sealed with Air Pore sealing tape) and allowed to grow for 20-24 hours. Cytotoxic wells (clear wells) are then scored and the potency of the compound was determined.

Salmonella choleraesuis = system: Salmonella choleraesuis
Method: as §1, §2, §3

Eschericia coli = system: Eschericia coli
Method: as §1, §2, §3

Enterococcus faecium = system: Enterococcus faecium
Method: as §1, §2, §3

| SMILES | MIC PA (Pseudomonas aeruginosa) [µg/mL] | MIC SC (Salmonella choleraesuis) [µg/mL] | MIC EC (Eschericia coli) [µg/mL] | MIC EF (Enterococcus faecium) [µg/mL] |
| --- | --- | --- | --- | --- |
| CCCCCCCCCCNC[C@H]1O[C@@H]2O[C@H]3[C@H](O)[C@@H](O)[C@@H](O[C@H]4[C@H](O)[C@@H](O)[C@@H](O[C@H]5[C@H](O)[C@@H](O)[C@@H](O[C@H]6[C@H](O)[C@@H](O)[C@@H](O[C@H]7[C@H](O)[C@@H](O)[C@@H](O[C@H]8[C@H](O)[C@@H](O)[C@@H](O[C@H]1[C@H](O)[C@H]2O)O[C@@H]8CNCCCCCCCCCC)O[C@@H]7CNCCCCCCCCCC)O[C@@H]6CNCCCCCCCCCC)O[C@@H]5CNCCCCCCCCCC)O[C@@H]4CNCCCCCCCCCC)O[C@@H]3CNCCCCCCCCCC | >200 | >200 | >200 | – |
| Oc1cccnc1NCC1OC2OC3C(CNc4ncccc4O)OC(OC4C(CNc5ncccc5O)OC(OC5C(CNc6ncccc6O)OC(OC6C(CNc7ncccc7O)OC(OC7C(CNc8ncccc8O)OC(OC8C(CNc9ncccc9O)OC(OC1C(O)C2O)C(O)C8O)C(O)C7O)C(O)C6O)C(O)C5O)C(O)C4O)C(O)C3O (stereo not shown) | >200 | >200 | >200 | – |
| CCCCCCCCCCCC[N+]12CC[N+](CC3OC4OC5C(C[N+]67CC[N+](CCCCCCCCCCCC)(CC6)CC7)OC(OC6C(C[N+]78CC[N+](CCCCCCCCCCCC)(CC7)CC8)OC(OC7C(C[N+]89CC[N+](CCCCCCCCCCCC)(CC8)CC9)OC(OC8C(C[N+]9%10CC[N+](CCCCCCCCCCCC)(CC9)CC%10)OC(OC9C(C[N+]%10%11CC[N+](CCCCCCCCCCCC)(CC%10)CC%11)OC(OC%10C(C[N+]%11%12CC[N+](CCCCCCCCCCCC)(CC%11)CC%12)OC(OC3C(O)C4O)C(O)C%10O)C(O)C9O)C(O)C8O)C(O)C7O)C(O)C6O)C(O)C5O)(CC1)CC2.[Br-].[Br-].[Br-].[Br-].[Br-].[Br-].[Br-].[Br-].[Br-].[Br-].[Br-].[Br-].[Br-].[Br-] (stereo not shown) | >200 | >200 | >200 | – |
| CCCCCCCCCCCCCCCC[N+]12CC[N+](CC3OC4OC5C(C[N+]67CC[N+](CCCCCCCCCCCCCCCC)(CC6)CC7)OC(OC6C(C[N+]78CC[N+](CCCCCCCCCCCCCCCC)(CC7)CC8)OC(OC7C(C[N+]89CC[N+](CCCCCCCCCCCCCCCC)(CC8)CC9)OC(OC8C(C[N+]9%10CC[N+](CCCCCCCCCCCCCCCC)(CC9)CC%10)OC(OC9C(C[N+]%10%11CC[N+](CCCCCCCCCCCCCCCC)(CC%10)CC%11)OC(OC%10C(C[N+]%11%12CC[N+](CCCCCCCCCCCCCCCC)(CC%11)CC%12)OC(OC3C(O)C4O)C(O)C%10O)C(O)C9O)C(O)C8O)C(O)C7O)C(O)C6O)C(O)C5O)(CC1)CC2.[Br-].[Br-].[Br-].[Br-].[Br-].[Br-].[Br-].[Br-].[Br-].[Br-].[Br-].[Br-].[Br-].[Br-] (stereo not shown) | >200 | – | – | – |
| OC1C2OC(CNc3cccc4ccccc34)C(OC3OC(CNc4cccc5ccccc45)C(OC4OC(CNc5cccc6ccccc56)C(OC5OC(CNc6cccc7ccccc67)C(OC6OC(CNc7cccc8ccccc78)C(OC7OC(CNc8cccc9ccccc89)C(OC8OC(CNc9cccc%10ccccc9%10)C(O2)C(O)C8O)C(O)C7O)C(O)C6O)C(O)C5O)C(O)C4O)C(O)C3O)C1O (stereo not shown) | >200 | >200 | >200 | – |
| OC1C2OC(CNc3ccccc3-c3ccccc3)C(OC3OC(CNc4ccccc4-c4ccccc4)C(OC4OC(CNc5ccccc5-c5ccccc5)C(OC5OC(CNc6ccccc6-c6ccccc6)C(OC6OC(CNc7ccccc7-c7ccccc7)C(OC7OC(CNc8ccccc8-c8ccccc8)C(OC8OC(CNc9ccccc9-c9ccccc9)C(O2)C(O)C8O)C(O)C7O)C(O)C6O)C(O)C5O)C(O)C4O)C(O)C3O)C1O (stereo not shown) | >200 | >200 | >200 | – |
| CCCCCCCCCC[N+]12CC[N+](CC(=O)NCC3OC4OC5C(CNC(=O)C[N+]67CC[N+](CCCCCCCCCC)(CC6)CC7)OC(OC6C(CNC(=O)C[N+]78CC[N+](CCCCCCCCCC)(CC7)CC8)OC(OC7C(CNC(=O)C[N+]89CC[N+](CCCCCCCCCC)(CC8)CC9)OC(OC8C(CNC(=O)C[N+]9%10CC[N+](CCCCCCCCCC)(CC9)CC%10)OC(OC9C(CNC(=O)C[N+]%10%11CC[N+](CCCCCCCCCC)(CC%10)CC%11)OC(OC%10C(CNC(=O)C[N+]%11%12CC[N+](CCCCCCCCCC)(CC%11)CC%12)OC(OC3C(O)C4O)C(O)C%10O)C(O)C9O)C(O)C8O)C(O)C7O)C(O)C6O)C(O)C5O)(CC1)CC2 (stereo not shown) | – | – | – | >200 |
| OC1C2OC(CNCc3cccc4ccccc34)C(OC3OC(CNCc4cccc5ccccc45)C(OC4OC(CNCc5cccc6ccccc56)C(OC5OC(CNCc6cccc7ccccc67)C(OC6OC(CNCc7cccc8ccccc78)C(OC7OC(CNCc8cccc9ccccc89)C(OC8OC(CNCc9cccc%10ccccc9%10)C(O2)C(O)C8O)C(O)C7O)C(O)C6O)C(O)C5O)C(O)C4O)C(O)C3O)C1O (stereo not shown) | >200 | >200 | >200 | – |
| C[C@H](NCC1OC2OC3C(CN[C@@H](C)c4ccccc4)OC(OC4C(CN[C@@H](C)c5ccccc5)OC(OC5C(CN[C@@H](C)c6ccccc6)OC(OC6C(CN[C@@H](C)c7ccccc7)OC(OC7C(CN[C@@H](C)c8ccccc8)OC(OC8C(CN[C@@H](C)c9ccccc9)OC(OC1C(O)C2O)C(O)C8O)C(O)C7O)C(O)C6O)C(O)C5O)C(O)C4O)C(O)C3O)c1ccccc1 (stereo partly shown) | >200 | >200 | – | – |
| Cc1cccc(NCC2OC3OC4C(CNc5cccc(C)c5)OC(OC5C(CNc6cccc(C)c6)OC(OC6C(CNc7cccc(C)c7)OC(OC7C(CNc8cccc(C)c8)OC(OC8C(CNc9cccc(C)c9)OC(OC9C(CNc%10cccc(C)c%10)OC(OC2C(O)C3O)C(O)C9O)C(O)C8O)C(O)C7O)C(O)C6O)C(O)C5O)C(O)C4O)c1 (stereo not shown) | >200 | >200 | >200 | – |
| Cc1ccccc1NCC1OC2OC3C(CNc4ccccc4C)OC(OC4C(CNc5ccccc5C)OC(OC5C(CNc6ccccc6C)OC(OC6C(CNc7ccccc7C)OC(OC7C(CNc8ccccc8C)OC(OC8C(CNc9ccccc9C)OC(OC1C(O)C2O)C(O)C8O)C(O)C7O)C(O)C6O)C(O)C5O)C(O)C4O)C(O)C3O (stereo not shown) | >200 | >200 | >200 | – |
| COc1cccc(CCNCC2OC3OC4C(CNCCc5cccc(OC)c5)OC(OC5C(CNCCc6cccc(OC)c6)OC(OC6C(CNCCc7cccc(OC)c7)OC(OC7C(CNCCc8cccc(OC)c8)OC(OC8C(CNCCc9cccc(OC)c9)OC(OC9C(CNCCc%10cccc(OC)c%10)OC(OC2C(O)C3O)C(O)C9O)C(O)C8O)C(O)C7O)C(O)C6O)C(O)C5O)C(O)C4O)c1 (stereo not shown) | >200 | – | – | – |
| CC(C)CCCCC(C)NCC1OC2OC3C(CNC(C)CCCCC(C)C)OC(OC4C(CNC(C)CCCCC(C)C)OC(OC5C(CNC(C)CCCCC(C)C)OC(OC6C(CNC(C)CCCCC(C)C)OC(OC7C(CNC(C)CCCCC(C)C)OC(OC8C(CNC(C)CCCCC(C)C)OC(OC1C(O)C2O)C(O)C8O)C(O)C7O)C(O)C6O)C(O)C5O)C(O)C4O)C(O)C3O (stereo not shown) | >200 | – | – | – |
| OC1C2OC(CNCCC3=CCCCC3)C(OC3OC(CNCCC4=CCCCC4)C(OC4OC(CNCCC5=CCCCC5)C(OC5OC(CNCCC6=CCCCC6)C(OC6OC(CNCCC7=CCCCC7)C(OC7OC(CNCCC8=CCCCC8)C(OC8OC(CNCCC9=CCCCC9)C(O2)C(O)C8O)C(O)C7O)C(O)C6O)C(O)C5O)C(O)C4O)C(O)C3O)C1O (stereo not shown) | >200 | – | – | – |
| OC1C2OC(CNCc3ccc(Cl)cc3)C(OC3OC(CNCc4ccc(Cl)cc4)C(OC4OC(CNCc5ccc(Cl)cc5)C(OC5OC(CNCc6ccc(Cl)cc6)C(OC6OC(CNCc7ccc(Cl)cc7)C(OC7OC(CNCc8ccc(Cl)cc8)C(OC8OC(CNCc9ccc(Cl)cc9)C(O2)C(O)C8O)C(O)C7O)C(O)C6O)C(O)C5O)C(O)C4O)C(O)C3O)C1O (stereo not shown) | >200 | >200 | – | – |
| Cc1cc(NCC2OC3OC4C(CNc5ccc(C(C)C)c(C)c5)OC(OC5C(CNc6ccc(C(C)C)c(C)c6)OC(OC6C(CNc7ccc(C(C)C)c(C)c7)OC(OC7C(CNc8ccc(C(C)C)c(C)c8)OC(OC8C(CNc9ccc(C(C)C)c(C)c9)OC(OC9C(CNc%10ccc(C(C)C)c(C)c%10)OC(OC2C(O)C3O)C(O)C9O)C(O)C8O)C(O)C7O)C(O)C6O)C(O)C5O)C(O)C4O)ccc1C(C)C (stereo not shown) | >200 | >200 | >200 | – |
| OC1C2OC(CNCc3ccc(Br)cc3)C(OC3OC(CNCc4ccc(Br)cc4)C(OC4OC(CNCc5ccc(Br)cc5)C(OC5OC(CNCc6ccc(Br)cc6)C(OC6OC(CNCc7ccc(Br)cc7)C(OC7OC(CNCc8ccc(Br)cc8)C(OC8OC(CNCc9ccc(Br)cc9)C(O2)C(O)C8O)C(O)C7O)C(O)C6O)C(O)C5O)C(O)C4O)C(O)C3O)C1O (stereo not shown) | – | – | >200 | – |
